Five compounds from patent US8735445B2, “Inhibitors of 15-hydroxyprostaglandin dehydrogenase for stimulating pigmentation of the skin or skin appendages” (L'Oreal, priority 2003, dated 2014) can be followed below.

Structures are written as SMILES. pIC50: −log10 of the molar value. Like-named read-outs stand apart in the source and are kept apart here.

Experiment [1] addresses T1, 15-PGDH (Homo sapiens, UniProt P15428).
T1 construct: GST (from vector pGEX-4T3); made in house; host or cells: E. coli BL21 DE3plys
T1 sequence (P15428 1-266): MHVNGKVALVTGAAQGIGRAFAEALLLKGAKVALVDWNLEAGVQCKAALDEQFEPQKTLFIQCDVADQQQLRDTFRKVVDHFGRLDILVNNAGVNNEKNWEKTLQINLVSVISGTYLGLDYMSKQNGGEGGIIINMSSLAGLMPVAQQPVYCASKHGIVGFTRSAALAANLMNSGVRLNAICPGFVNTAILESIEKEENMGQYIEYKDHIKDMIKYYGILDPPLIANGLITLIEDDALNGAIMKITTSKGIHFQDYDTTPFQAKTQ
Nature of the experiment: 15-PGDH test (spectrophotometric, NADH at 340 nm, PGE2 substrate). The experiment is classed as biochemical. To be noted: Example I-5. The procedure:
The enzyme obtained is at a concentration of 0.3 mg/ml and is blocked at −80° C. This suspension is thawed and stored in ice.
A 100 mM Tris buffer, pH—7.4, containing 0.1 mM of dithiothreitol (D5545, Sigma-Aldrich, L'isle D'Abeau Chesne, BP 701, 38297, Saint Quentin Fallavier), 1.5 mM of 13-NAD (N6522, Sigma-Aldrich, L'isle D'Abeau Chesne, BP 701, 38297, Saint Quentin Fallavier) and 50 μM of prostaglandin E2 (P4172, Sigma-Aldrich, L'isle D'Abeau Chesne, BP 701, 38297, Saint Quentin Fallavier) is prepared.
0.965 ml of this buffer (brought to 37° C. beforehand) is placed in the cuvette of a spectrophotomer (Perkin-Elmer, Lambda 2) thermostated at 37° C., the measuring wavelength of which is set at 340 nm. 0.035 ml of enzyme suspension at 37° C. is placed in the cuvette concomitantly with the recording (increase in optical density at 340 nm).
The maximum reaction rate is recorded.
The assay values (molecules) are compared with the control value (without molecule), and the results are expressed as % of the control value.
The assay is carried out as described in example 4a.
The methodology is that described in example 1-5.

Experiment [2] has as its target T2, PGF synthase (PGFS) (Homo sapiens, UniProt P42330).
T2 sequence (P42330 1-323): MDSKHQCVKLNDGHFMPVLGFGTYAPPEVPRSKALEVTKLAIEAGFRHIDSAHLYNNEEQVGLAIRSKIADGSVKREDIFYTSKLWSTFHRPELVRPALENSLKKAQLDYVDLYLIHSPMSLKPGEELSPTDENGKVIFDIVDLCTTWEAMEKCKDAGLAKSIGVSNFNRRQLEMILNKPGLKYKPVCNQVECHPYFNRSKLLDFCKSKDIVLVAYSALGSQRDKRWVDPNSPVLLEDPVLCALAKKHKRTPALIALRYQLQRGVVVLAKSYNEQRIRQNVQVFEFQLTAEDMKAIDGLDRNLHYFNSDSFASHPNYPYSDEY
Nature of the experiment: Test on PGFS (PGF synthase; phenanthrenequinone/NADPH, 340 nm). Format: biochemical. The protocol: The PGF synthase enzyme is obtained as described in FR-A-02/05067, at a concentration of 0.5 mg/ml, in suspension in an appropriate medium, and is blocked at −80° C. For the needs of the test, this suspension is thawed and stored in ice.
Moreover, a 100 mM Tris buffer, pH=6.5, containing 20 μM of 9.10-phenanthrenequinone* (P2896, Sigma-Aldrich, L′ isle D'Abeau Chesne, BP 701, 38297, Saint Quentin Fallavier) and 100 μM of β-NAPDH(N1630, Sigma-Aldrich, L'isle D'Abeau Chesne, BP 701, 38297, Saint Quentin Fallavier), is prepared in a brown bottle (exclusion of light).
*A stock solution having a titer of 1 mM is prepared in absolute ethanol, brought to 40° C.; the flask is placed in an ultrasound tank so as to facilitate solubilization of the product.
0.950 ml of this buffer (brought beforehand to 37° C.) is introduced into the cuvette of a spectrophotometer (Perkin-Elmer, Lambda 2) thermostatically controlled at 37° C., the measuring wavelength of which is set at 340 nm. 0.05 ml of enzymatic suspension at 37° C. is introduced into the cuvette concomitantly with the recording (corresponding to a decrease in optical density at 340 nm). The maximum reaction rate is recorded. […]

Experiment [3] concerns melanocyte line MeWo. Kind of experiment: Protection of PGF2α in melanocyte line MeWo. The experiment is classed as cell-based. To be noted: 4 hours, MeWo melanocytes. The procedure:
An ampoule of Mewo melanocytes (American type cell collection, HTB-65) is amplified (75 cm^2 flask, Costar), in DMEM medium (Gibco)+10% fetal calf serum+2 mM of L-glutamine+1% of antibiotics (Gibco). After confluence, these cells (48 hours to 72 hours) are resuspended in this same culture medium, after the action of trypsin (according to a procedure conventionally used in cell culture), in a proportion of 600 000 cells per ml.
200 μl of this suspension are introduced into n times 6 wells (n being the total number of assays, i.e., x molecules at 2 concentrations) of a 96-well plate (Costar). The plate is placed in an incubator at 37° C. under 5% CO2.
Preparation, in DMSO of the 1000× stock solutions of the active agents to be evaluated (i.e., 5 and 25 mM).
Removal of the supernatants from the cultures previously prepared (96-well plate), and rinsing with 100 μl/well of DMEM medium+additives (see above description) preheated to 37° C.
Introduction of 100 μl/well of DMEM medium (+additives) containing 0.1 μl of DMSO (control) or 0.1 μl of the stock solution of the active agent to be evaluated (there are 6 assay wells per molecule and per concentration).
Practically 1 ml of solution is prepared for each of the active agents (and per concentration) to be tested, therefore 1 ml of medium+1 μl of DMSO (control) or of 1000× stock solution.
The plate is again placed in an incubator at 37° C. under 5% CO2 for 4 hours, and then a PGF2α assay is carried out on 50 μl of each of the supernatants (of the various assays) by means of an immunoenzymatic kit (according to the supplier's recommendations (PGF2α, EIA kit, ref. 516011, Cayman)).
Results (as % of the amount of PGF2α measured under the control conditions): […]

Regarding `O=C1NC(=O)C(=Cc2ccc(-c3ccc(C(=O)O)cc3)o2)S1` [Compound 1 of example I, 4-{5-[(2,4-dioxo-1,3-thiazolidin-5-ylidene)methyl]-2-furyl}benzoic acid], the IC50fs/IC50dh ratio result in experiment [1] (selectivity for 15-PGDH with respect to PGFS) is “greater than 13”.

With `O=C1NC(=O)/C(=C/c2ccc(-c3ccc(C(=O)O)cc3)o2)S1` [Compound 1, 4-{5-[(2,4-dioxo-1,3-thiazolidin-5-ylidene)methyl]-2-furyl}benzoic acid], the pIC50 in experiment [1] (read-out: Inhibition 15-PGDH IC50dh) is 6.52; in experiment [2] (Example I-5, read-out: Inhibition of PGFS IC50fs), 5.40.

Turning to `O=C1NC(=O)/C(=C/c2ccc(-c3ccc(C(=O)O)cc3)o2)S1` [Compound 1a of example I], the results for the “% of the amount of PGF2α measured under the control conditions” value in experiment [3] (5 μM) and in experiment [3] (25 μM) were “+67%” and “+51%”, respectively.

As to `COc1ccccc1/C=C(\C#N)c1nn(-c2ccccc2)c(N)c1C#N` [Compound 9 of example II], the pIC50 in experiment [2] (Example II-2, read-out: Inhibition of PGF synthase IC50fs) was < 4.30.

As to `COC(=O)c1cc(/N=N/c2ccc(O)c(CC(=O)O)c2)cc(C(=O)OC)c1` [PhCL28A, reference compound], the “% of the amount of PGF2α measured under the control conditions” value in experiment [3] (5 μM) is “+43%”; in experiment [3] (25 μM) it was “+147%”.
